Values of other authors as cited in patent US7479499B2 (Celgene Corporation, priority 2000, dated 2009).

Key:
[1] = system: patients with metastatic colorectal cancer; details: irinotecan monotherapy
[2] = system: metastatic colorectal cancer patients
[3] = second line treatment of colorectal cancer after 5FU

SMILES | Expected (%) Grade 1-4 Abdominal colic/pain ([1]; abdominal colic/pain, grade 1-4) | Expected (%) Grade 3-4 Abdominal colic/pain ([1]; abdominal colic/pain, grade 3-4) | Expected (%) Grade 1-4 Asthenia ([1]; asthenia, grade 1-4) | Expected (%) Grade 3-4 Asthenia ([1]; asthenia, grade 3-4) | Expected (%) Grade 1-4 Constipation ([1]; constipation, grade 1-4) | Expected (%) Grade 3-4 Constipation ([1]; constipation, grade 3-4) | Expected (%) Grade 1-4 Diarrhea (Late) ([1]; late diarrhea, grade 1-4) | Expected (%) Grade 3-4 Diarrhea (Late) ([1]; late diarrhea, grade 3-4) | Expected (%) Grade 1-4 Nausea ([1]; nausea, grade 1-4) | Expected (%) Grade 1-4 Vomiting ([1]; vomiting, grade 1-4) | Expected (%) Grade 3-4 Vomiting ([1]; vomiting, grade 3-4) | debilitating (Grade 3-4) late onset diarrhea, share of patients ([2]; late onset: more than 24 hours after administration) | complete response rate [2, 3] | median duration of response [2, 3] | overall response rates [2, 3] | early onset diarrhea, frequency ([2]; within 24 hours of drug administration) | complete responses ([2]; metastatic colorectal cancer) | partial responses, share of patients ([2]; metastatic colorectal cancer)
CCc1c2c(nc3ccc(OC(=O)N4CCC(N5CCCCC5)CC4)cc13)-c1cc3c(c(=O)n1C2)COC(=O)[C@]3(O)CC [Irinotecan, (4S)-4,11-diethyl-4-hydroxy-9-[(4-piperidino-piperidino)carbonyl-oxy]1H-pyranol-[3′,4′:6,7]indolizinol[1,2-b]quinoline-3,14-(4H,12H)dione] | 23.7% | 2.3% | 75.7% | 12.2% | 29.9% | 2.0% | 87.8% | 30.6% | 86.2% | 66.8% | 12.5% | 30-40% | less than one percent | 6.4 months | less than 20% | uncommon | – | –
O=c1[nH]cc(F)c(=O)[nH]1 [5FU, 5-fluorouracil] | – | – | – | – | – | – | – | – | – | – | – | – | – | – | – | – | extremely rare | less than 25%
